Reference: patent US11465987B2, “Compounds for treatment of cancer” (ONCTERNAL THERAPEUTICS, INC., priority 2012, dated 2022)
Like-named read-outs stand apart in the source and are kept apart here.

Columns and labels:
[1] = test system: DU 145 human prostate cancer cell line; test: Cytotoxicity (SRB) assay, DU 145; format: cell-based
Source text: (§1) Cells were stained with SRB solution.

[2] = test system: PC-3 human prostate cancer cell line; test: cells; settings: Homo sapiens
Source text: as §1

[3] = test system: PPC-1 human prostate cancer cell line; test: Cytotoxicity (SRB) assay, PPC-1; format: cell-based; settings: Homo sapiens, PPC-1, Table 6A; read-out: IC50 ± SEM, PPC-1 (converted)
Source text: as §1

[4] = read-out: IC50 PC-3, SRB assay, prostate cancer PC-3
[5] = read-out: IC50 ± SEM, PC-3, Table 13
[6] = read-out: IC50 ± SEM, PC-3, Table 12
[7] = read-out: IC50 ± SEM, PC-3, Table 6A
[8] = Homo sapiens, DU-145, Table 6A, read-out: IC50 ± SEM, DU 145

4-Methoxyphenyl(4-(3,4,5-trimethoxyphenyl)-1H-imidazol-2-yl)methanone and 4-methoxyphenyl(5-(3,4,5-trimethoxyphenyl)-1H-imidazol-2-yl)methanone [70y]
IC50 ([1]; Table 13B, read-out: inhibitory effects, DU145): > 50 µM

COc1cc(C(=O)c2cc(-c3ccccc3)n[nH]2)cc(OC)c1OC [1k, (3-Phenyl-1H-pyrazol-5-yl)(3,4,5-trimethoxyphenyl)methanone]
IC50 [2, 4]: 0.101 µM

COc1cc(C(=C(C)C)c2csc(-c3ccccc3)n2)cc(OC)c1OC [2a, 4-(2-Methyl-1-(3,4,5-trimethoxyphenyl)prop-1-enyl)-2-phenylthiazole]
IC50 [2, 4]: 2.47 µM

COc1cc(/C(=C\C#N)c2csc(-c3ccccc3)n2)cc(OC)c1OC [2c-cis, (E)-3-(2-phenylthiazol-4-yl)-3-(3,4,5-trimethoxyphenyl)acrylonitrile]
IC50 ([2]; read-out: IC50 PC-3): ~10 µM

COc1cc(/C(=C/C#N)c2csc(-c3ccccc3)n2)cc(OC)c1OC [2c-trans, (Z)-3-(2-phenylthiazol-4-yl)-3-(3,4,5-trimethoxyphenyl)acrylonitrile]
IC50 ([2]; read-out: IC50 PC-3): 0.89 µM

COc1cc(/C(=N/N)c2csc(-c3ccccc3)n2)cc(OC)c1OC [2d-cis, (Z)-4-(hydrazono(3,4,5-trimethoxyphenyl)methyl)-2-phenylthiazole]
IC50 [2, 4]: 1.12 µM

COc1cc(/C(=N\N)c2csc(-c3ccccc3)n2)cc(OC)c1OC [2d-trans, (E)-4-(hydrazono(3,4,5-trimethoxyphenyl)methyl)-2-phenylthiazole]
IC50 [2, 4]: 1.04 µM

CO/N=C(/c1cc(OC)c(OC)c(OC)c1)c1csc(-c2ccccc2)n1 [2f-cis, (Z)-(2-Phenylthiazol-4-yl)(3,4,5-trimethoxyphenyl)methanone O-methyl oxime]
IC50 [2, 4]: > 10 µM

CO/N=C(\c1cc(OC)c(OC)c(OC)c1)c1csc(-c2ccccc2)n1 [2f-trans, (E)-(2-Phenylthiazol-4-yl)(3,4,5-trimethoxyphenyl)methanone O-methyl oxime]
IC50 [2, 4]: > 10 µM

COc1cc(C(=O)Nc2csc(-c3ccccc3)n2)cc(OC)c1OC [2h, 3,4,5-Trimethoxy-N-(2-phenylthiazol-4-yl)benzamide]
IC50 [2, 4]: > 10 µM

COc1cc(-c2csc(-c3ccccc3)n2)cc(OC)c1OC [2i, 2-Phenyl-4-(3,4,5-trimethoxyphenyl)thiazole]
IC50 [2, 4]: > 10 µM

COc1cc(/C=C/c2csc(-c3ccccc3)n2)cc(OC)c1OC [3b, (E)-2-Phenyl-4-(3,4,5-trimethoxystyryl)thiazole]
IC50 ([2]; read-out: IC50 PC-3): > 10 µM

COc1cc(S(=O)(=O)c2cccc(-c3ccccc3)c2)cc(OC)c1OC [4b, 3-(3,4,5-Trimethoxyphenylsulfonyl)biphenyl]
IC50 [2, 4]: > 10 µM

COc1cc([S+]([O-])c2cccc(-c3ccccc3)c2)cc(OC)c1OC (centres unmarked) [4c, 3-(3,4,5-Trimethoxyphenylsulfinyl)biphenyl]
IC50 [2, 4]: > 10 µM

COc1cc(NS(=O)(=O)c2cccc(-c3ccccc3)c2)cc(OC)c1OC [4d, N-(3,4,5-Trimethoxyphenyl)biphenyl-3-sulfonamide]
IC50 [2, 4]: > 10 µM

COc1cc(C(=O)c2csc(Nc3ccccc3)n2)cc(OC)c1OC [5a, (2-(phenylamino)thiazol-4-yl)(3,4,5-trimethoxyphenyl)methanone]
IC50 [2, 4]: 0.057 ± 0.003 µM

COc1cc(C(=O)c2csc(Nc3ccc(F)cc3)n2)cc(OC)c1OC [5c, (2-(p-fluorophenylamino)thiazol-4-yl)(3,4,5-trimethoxyphenyl)methanone]
IC50 [2, 4]: 0.043 ± 0.001 µM

COc1cc(C(=O)c2csc(Nc3ccc(Cl)cc3)n2)cc(OC)c1OC [5d, (2-(4-chlorophenylamino)thiazol-4-yl)(3,4,5-trimethoxyphenyl)methanone]
IC50 [2, 4]: 0.033 ± 0.001 µM

COc1cc(C(=O)c2c[nH]c(Nc3ccccc3)n2)cc(OC)c1OC [5e, (2-(phenylamino)-1H-imidazol-4-yl)(3,4,5-trimethoxyphenyl)methanone]
IC50 [2, 4]: > 1 µM

COc1ccc(C(=O)c2cn(S(=O)(=O)c3ccccc3)c(-c3ccccc3)n2)cc1 [11ab, (4-methoxyphenyl)(2-phenyl-1-(phenylsulfonyl)-1H-imidazol-4-yl)methanone]
IC50 [2, 5]: > 10 µM

COc1cccc(C(=O)c2cn(S(=O)(=O)c3ccccc3)c(-c3ccccc3)n2)c1 [11ac, (3-methoxyphenyl)(2-phenyl-1-(phenylsulfonyl)-1H-imidazol-4-yl)methanone]
IC50 [2, 5]: > 10 µM

O=C(c1cccc(F)c1)c1cn(S(=O)(=O)c2ccccc2)c(-c2ccccc2)n1 [11ag, (3-fluorophenyl)(2-phenyl-1-(phenylsulfonyl)-1H-imidazol-4-yl)methanone]
IC50 [2, 5]: > 10 µM

Cc1ccc(C(=O)c2cn(S(=O)(=O)c3ccccc3)c(-c3ccccc3)n2)cc1 [11ah, (2-phenyl-1-(phenylsulfonyl)-1H-imidazol-4-yl)(p-tolyl)methanone]
IC50 [2, 5]: > 10 µM

Cc1ccc(-c2nc(C(=O)c3ccc(F)cc3)cn2S(=O)(=O)c2ccccc2)cc1 [11db, (4-fluorophenyl)(1-(phenylsulfonyl)-2-(p-tolyl)-1H-imidazol-4-yl)methanone]
IC50 [2, 5]: 0.08 µM

COc1ccc(-c2nc(C(=O)c3ccc(F)cc3)cn2C)cc1 [12cba, (4-fluorophenyl)(2-(4-methoxyphenyl)-1-methyl-1H-imidazol-4-yl)methanone]
IC50 [2, 5]: > 10 µM

CN(C)c1ccc(-c2nc(C(=O)c3ccc(F)cc3)c[nH]2)cc1 [12gb, (2-(4-(dimethylamino)phenyl)-1H-imidazol-4-yl)(4-fluorophenyl)methanone]
IC50 [2, 6]: 0.081 µM

COc1cc(C(=O)c2c[nH]c(-c3ccc(C(F)(F)F)cc3)n2)cc(OC)c1OC [12pa, (2-(4-(trifluoromethyl)phenyl)-1H-imidazol-4-yl)(3,4,5-trimethoxyphenyl)methanone]
IC50 [2, 6]: 0.127 µM

O=C(c1cc(O)c(O)c(O)c1)c1c[nH]c(-c2cc(O)c(O)c(O)c2)n1 [13ea, (3,4,5-trihydroxyphenyl)(2-(3,4,5-trihydroxyphenyl)-1H-imidazol-4-yl)methanone]
IC50 [2, 6]: > 10 µM

COc1cc(C(=O)c2cn(S(=O)(=O)c3ccccc3)c(-c3ccc4c(c3)cc(C(=O)c3cc(OC)c(OC)c(OC)c3)n4S(=O)(=O)c3ccccc3)n2)cc(OC)c1OC [16xaa, (1-(phenylsulfonyl)-2-(1-(phenylsulfonyl)-2-(3,4,5-trimethoxybenzoyl)-1H-indol-5-yl)-1H-imidazol-4-yl)(3,4,5-trimethoxyphenyl)methanone]
IC50 ([2]; read-out: IC50 ± SEM, PC-3): > 10 µM

COc1cc(C(=O)[C@@H]2CSC(c3ccc(O[Si](C)(C)C(C)(C)C)cc3)=N2)cc(OC)c1OC [58a, (R)-(2-(4-(tert-Butyldimethylsilyloxy)phenyl)-4,5-dihydrothiazol-4-yl)(3,4,5-trimethoxyphenyl)methanone]
IC50 ([2]; read-out: IC50 PC-3): 0.183 ± 0.024 µM

COc1cc(C(=O)c2csc(-c3cc4ccccc4[nH]3)n2)cc(OC)c1OC [62a, (2-(1H-indol-2-yl)thiazol-4-yl)(3,4,5-trimethoxyphenyl)methanone]
IC50 ([2]; read-out: IC50 PC-3): 0.024 µM

COc1cc(C(=O)c2csc(-c3ccc(CNC(=O)OC(C)(C)C)cc3)n2)cc(OC)c1OC [68a, tert-Butyl 4-(4-(3,4,5-trimethoxybenzoyl)thiazol-2-yl)benzylcarbamate]
IC50 [2, 4]: 3.1 µM

COc1cc(C(=O)c2csc(-c3ccccc3)n2)cc(OC)c1OCc1ccccc1 [compound 9]
IC50 [3]: ~10 µM
IC50 [2, 7]: ~10 µM
IC50 [1, 8]: ~10 µM

Cc1ccc(-c2nc(C(=O)c3ccc(F)cc3)cs2)cc1 [compound 11]
IC50 [3]: > 10 µM
IC50 [2, 7]: > 10 µM
IC50 [1, 8]: > 10 µM

O=C(c1ccc(F)cc1)c1csc(-c2ccccc2)n1 [compound 12]
IC50 [3]: > 10 µM
IC50 [2, 7]: > 10 µM
IC50 [1, 8]: > 10 µM

O=C(c1ccc(OC(F)(F)F)cc1)c1csc(-c2ccccc2)n1 [compound 13]
IC50 [3]: > 10 µM
IC50 [2, 7]: > 10 µM
IC50 [1, 8]: > 10 µM

O=C(c1ccc(F)cc1)c1csc(-c2ccc(F)cc2)n1 [compound 14]
IC50 [3]: > 10 µM
IC50 [2, 7]: > 10 µM
IC50 [1, 8]: > 10 µM

O=C(c1csc(-c2cc(F)c(F)c(F)c2)n1)c1c(F)c(F)c(F)c(F)c1F [compound 16]
IC50 [3]: > 10 µM
IC50 [2, 7]: > 10 µM
IC50 [1, 8]: > 10 µM

COc1cc(C(=O)c2csc(-c3ccccc3)n2)cc(OC)c1OC(=O)CCl [compound 18]
IC50 [3]: ~10 µM
IC50 [2, 7]: ~10 µM
IC50 [1, 8]: ~10 µM

O=C(c1ccc2c(c1)OCO2)N1CCC(c2ccccc2)CC1 [compound 19]
IC50 [3]: > 20 µM
IC50 [2, 7]: > 20 µM
IC50 [1, 8]: > 20 µM

O=C(c1ccc(F)cc1)N1CCC(c2ccccc2)CC1 [compound 22]
IC50 [3]: > 20 µM
IC50 [2, 7]: > 20 µM
IC50 [1, 8]: > 20 µM

COc1cc(C(=O)c2csc(-c3ccccc3)n2)cc(OC)c1OC(=O)C(F)(F)F [compound 23]
IC50 [3]: ~10 µM
IC50 [2, 7]: ~10 µM
IC50 [1, 8]: ~10 µM

COc1cc(-c2nc(C(=O)c3ccc(F)cc3)cn2C(=O)c2ccc(F)cc2)cc(OC)c1OC [compound 30]
IC50 [3]: > 10 µM
IC50 [2, 7]: > 10 µM
IC50 [1, 8]: > 10 µM

COc1cc(C(=NC#N)c2csc(-c3ccccc3)n2)cc(OC)c1O [compound 32, N-((4-hydroxy-3,5-dimethoxyphenyl)(2-phenylthiazol-4-yl)methylene)cyanamide]
IC50 [2, 7]: 2.29 µM

O=C(c1cc(O)c(O)c(O)c1)c1csc(-c2ccccc2)n1 [compound 33]
IC50 [3]: > 2 µM
IC50 [2, 7]: > 2 µM
IC50 [1, 8]: > 2 µM

COc1cc(C(=O)c2csc(-c3ccccc3)n2)cc(OC)c1O [compound 34]
IC50 [3]: > 10 µM
IC50 [2, 7]: > 10 µM
IC50 [1, 8]: > 10 µM

c1ccc(Nc2nccn2C(c2ccccc2)(c2ccccc2)c2ccccc2)cc1 [d, N-Phenyl-1-trityl-1H-imidazol-2-amine]
IC50 [2, 4]: > 1 µM

COc1cc(C(=O)c2cn(C(c3ccccc3)(c3ccccc3)c3ccccc3)c(Nc3ccccc3)n2)cc(OC)c1OC [e, (2-(Phenylamino)-1-trityl-1H-imidazol-4-yl)(3,4,5 trimethoxyphenyl)methanone]
IC50 [2, 4]: > 1 µM
